In US20130310256A1, “HERBICIDAL COMPOSITIONS COMPRISING 4-AMINO-3-CHLORO-5-FLUORO-6-(4-CHLORO-2-FLUORO-3-METHOXYPHENYL) PYRIDINE-2-CARBOXYLIC ACID OR A DERIVATIVE THEREOF AND VLCFA AND LIPID SYNTHESIS INHIBITING HERBICIDES” (DOW AGROSCIENCES LLC, priority 2008, published 2013):

Columns and labels:
[1] = system: IPOHE; experiment: Example IV: pre-emergence soil-applied weed control, greenhouse; assay type: in vivo, Ipomoea hederacea Jacq. (ivyleaf morningglory); conditions: 27 DAA
Excerpt: Seeds or nutlets of the desired test plant species were planted in a soil matrix prepared by mixing a loam soil (32 percent silt, 23 percent clay, and 45 percent sand, with a pH of about 6.5 and an organic matter content of about 1.9 percent) and calcareous grit in an 80 to 20 ratio. The soil matrix was contained in plastic pots with a volume of 1 quart and a surface area of 83.6 square centimeters (cm^2).
(§1) Treatments consisted of the benzyl ester of 4-amino-3-chloro-5-fluoro-6-(4-chloro-2-fluoro-3-methoxy-phenyl)pyridine-2-carboxylic acid (compound A) formulated as an SC (suspension concentrate) and various herbicidal components alone and in combination. Forms of compound A were applied on an acid equivalent basis.
Other herbicidal components were applied on an active ingredient basis and included very long chain fatty acid (VLCFA) synthesis-inhibiting and fatty acid/lipid synthesis-inhibiting herbicides alachlor (technical grade material), dimethenamid-P formulated as Outlook®, and S-metolachlor formulated as Dual® II Magnum.
Treatment requirements were calculated based upon the rates being tested, the concentration of active ingredient or acid equivalent in the formulation, and a 12 mL application volume at a rate of 187 L/ha.
For treatments comprised of formulated compounds, measured amounts of compounds were placed individually in 25 mL glass vials and diluted in a volume of 1.25% (v/v) Agri-Dex® crop oil concentrate (COC) to obtain 12× stock solutions. […] Application solutions were prepared by adding an appropriate amount of each stock solution (e.g., 1 mL) and diluted to the appropriate final concentrations with the addition of 10 mL of an aqueous mixture of 1.25% (v/v) COC so that the final spray solutions contained 1.25% (v/v) COC.
For treatments comprised of technical compounds, weighed amounts can be placed individually in 25 mL glass vials and dissolved in a volume of 97:3 (v/v) acetone/DMSO to obtain 12× stock solutions. […] Application solutions can be prepared by adding an appropriate amount of each stock solution (e.g., 1 mL) and diluted to the appropriate final concentrations with the addition of 10 mL of an aqueous mixture of 1.5% (v/v) COC so that the final spray solutions contain 1.25% (v/v) COC. When technical materials are used, the concentrated stock solutions can be added to the spray solutions so that the final acetone and DMSO concentrations of the application solutions are 16.2% and 0.5%, respectively.
For treatments comprised of formulated and technical compounds, weighed amounts of the technical materials were placed individually in 25 mL glass vials and dissolved in a volume of 97:3 (v/v) acetone/DMSO to obtain 12× stock solutions, and measured amounts of the formulated compounds were placed individually in 25 mL glass vials and diluted in a volume of 1.5% (v/v) COC or water to obtain 12× stock solutions. […] Application solutions were prepared by adding an appropriate amount of each stock solution (e.g., 1 mL) and diluted to the appropriate final concentrations with the addition of an appropriate amount of an aqueous mixture of 1.5% (v/v) COC so that the final spray solutions contained 1.25% (v/v) COC. As required, additional water and/or 97:3 (v/v) acetone/DMSO was added to individual application solutions so that the final acetone and DMSO concentrations of the application solutions being compared were 8.1% and 0.25%, respectively.
All stock solutions and applications solutions were visually inspected for compound compatibility prior to application. Spray solutions were applied to the soil with an overhead Mandel track sprayer equipped with a 8002E nozzles calibrated to deliver 187 L/ha over an application area of 0.503 m^2 at a spray height of 18 inches (46 cm) above average pot height. Control pots were sprayed in the same manner with the solvent blank.
The treated and control pots were placed in a greenhouse and top watered as needed. […]

[2] = system: CYPRO; experiment: Example II: in-water applied weed control, transplanted paddy rice, greenhouse; assay type: in vivo, Cyperus rotundus L. (purple nutsedge); conditions: 19 DAA
Description: (§2) Weed seeds or nutlets of the desired test plant species were planted in puddled soil (mud) prepared by mixing a shredded, non-sterilized mineral soil (50.5 percent silt, 25.5 percent clay, and 24 percent sand, with a pH of about 7.6 and an organic matter content of about 2.9 percent) and water at a 1:1 volumetric ratio. The prepared mud was dispensed in 365 mL aliquots into 16-ounce (oz.) non-perforated plastic pots with a surface area of 86.59 square centimeters (cm^2) leaving a headspace of 3 centimeters (cm) in each pot. Mud was allowed to dry overnight prior to planting or transplanting. Rice seeds were planted in Sun Gro MetroMix® 306 planting mixture, which typically has a pH of 6.0 to 6.8 and an organic matter content of about 30 percent, in plastic plug trays. Seedlings at the second or third leaf stage of growth were transplanted into 840 mL of mud contained in 32-oz. non-perforated plastic pots with a surface area of 86.59 cm^2 4 days prior to herbicide application. The paddy was created by filling the headspace of the pots with 2.5 to 3 cm of water. When required to ensure good germination and healthy plants, a fungicide treatment and/or other chemical or physical treatment was applied. The plants were grown for 4-22 days in a greenhouse with an approximate 14 hr photoperiod which was maintained at about 29′C during the day and 26° C. during the night. Nutrients were added as Osmocote® (19:6:12, N:P:K+ minor nutrients) at 2 g per 16-oz. pot and 4 g per 32-oz. pot. Water was added on a regular basis to maintain the paddy flood, and supplemental lighting was provided with overhead metal halide 1000-Watt lamps as necessary. The plants were employed for testing when they reached the first through fourth true leaf stage.
as §1, with “acid or esters” for “benzyl ester”, “A) each” for “A)”
(§3) The herbicidal components were applied on an active ingredient basis and included very long chain fatty acid (VLCFA) synthesis-inhibiting and fatty acid/lipid synthesis-inhibiting herbicides acetochlor (technical grade material), acetochlor+dichlormid formulateded as Topnotch®, pretilachlor (technical grade material), butachlor formulated as Butachlor EC, fentrazamide formulated as Fentrazamide EC, thiobencarb formulated as Bolero® 8EC, cafenstrole formulated as Himeadow® WP or Lapost® Flowable, benfuresate formulated as Full Shot®, anilofos (technical grade material), mefenacet (technical grade material), molinate (technical grade material), and thenylchlor (technical grade material).
(§4) Treatment requirements for each compound or herbicidal component were calculated based upon the rates being tested, the concentration of active ingredient or acid equivalent in the formulation, an application volume of 2 mL per component per pot, and an application area of 86.59 cm^2 per pot.
(§5) For formulated compounds, a measured amount was placed in an individual 100 or 200 mL glass vial and was dissolved in a volume of 1.25% (v/v) Agri-Dex® crop oil concentrate to obtain application solutions.
(§6) For technical grade compounds, a weighed amount was placed in an individual 100 to 200 mL glass vial and was dissolved in a volume of acetone to obtain concentrated stock solutions. […] The concentrated stock solutions obtained were diluted with an equivalent volume of an aqueous mixture containing 2.5% (v/v) crop oil concentrate so that the final application solutions contained 1.25% (v/v) crop oil concentrate.
(§7) Applications were made by injecting with a pipetter appropriate amounts of the application solutions, individually and sequentially, into the aqueous layer of the paddy. Control plants were treated in the same manner with the solvent blank. […]

[3] = system: FIMMI; experiment: as above; assay type: in vivo, Fimbristylis miliacea (L.) Vahl (globe fringerush); conditions: 19 DAA
Description: as §2
as §1, with “acid or esters” for “benzyl ester”, “A) each” for “A)”
as §3, §4, §5, §6, §7

[4] = system: ECHOR; experiment: as above; assay type: in vivo, Echinochloa oryzoides (Ard.) Fritsch (early watergrass); conditions: 19 DAA
Description: as §2
as §1, with “acid or esters” for “benzyl ester”, “A) each” for “A)”
as §3, §4, §5, §6, §7

[5] = system: ECHCG; experiment: as above; assay type: in vivo, Echinochloa crus-galli (L.) Beauv. (barnyardgrass); conditions: 100 gai/ha, 19 DAA
Description: as §2
as §1, with “acid or esters” for “benzyl ester”, “A) each” for “A)”
as §3, §4, §5, §6, §7

Compound | Visual Weed Control IPOHE Obs ([1]; 1240 gai/ha) [%] | Visual Weed Control IPOHE Obs ([1]; 2480 gai/ha) [%] | Visual Weed Control CYPRO Obs ([2]; 100 gai/ha) [%] | Visual Weed Control CYPRO Obs ([2]; 200 gai/ha) [%] | Visual Weed Control CYPRO Obs ([2]; 400 gai/ha) [%] | Visual Weed Control FIMMI Obs ([3]; 100 gai/ha) [%] | Visual Weed Control FIMMI Obs ([3]; 200 gai/ha) [%] | Visual Weed Control FIMMI Obs ([3]; 400 gai/ha) [%] | Visual Weed Control ECHOR Obs ([4]; 100 gai/ha) [%] | Visual Weed Control ECHOR Obs ([4]; 200 gai/ha) [%] | Visual Weed Control ECHCG Obs [5] [%]
CCc1cccc(CC)c1N(COC)C(=O)CCl [Alachlor, 2-chloro-N-(2,6-diethylphenyl)-N-(methoxymethyl)acetamide] | 5 | 13 | – | – | – | – | – | – | – | – | –
S-[2-[(4-chlorophenyl)(1-methylethyl)amino]-2-oxoethyl]O,O-dimethyl phosphorodithioate [Anilofos] | – | – | 0 | 0 | 0 | 0 | 0 | 10 | 40 | 80 | 20
